System: zebrafish 4 days post fertilization
Test: Zebrafish colour preference (visual perception response) test in water tank with blue and yellow passage portions
Details: as the alcohol concentration of the medium increased (0%, 0.5%, 1%, 2%); 10 zebrafish, 30-minute intervals, FIG. 5
From the text: 5) The image stored in each of the first to fifth image files was read at 2-minute intervals to count the number of zebrafish in the first passage portion 112 fitted with the first fitting body 120 (preferred color) or the second passage portion 113 fitted with the second fitting body 130 (dislike color).

Structure (SMILES): CCO [alcohol]
- visual perception response of the zebrafish (distribution between first passage portion, preferred color, and second passage portion, dislike color): scattered in both the first passage portion 112 and the second passage portion 113

Source: US20150177228A1, “DEVICE AND METHOD FOR SCREENING FOR BIOACTIVE MATERIALS USING VISUAL RECOGNITION OF ANIMALS” (GENOMIC DESIGN BIOENGINEERING COMPANY, priority 2012, published 2015)
